Test results as given in patent US5041448A, “(4-piperidinylmethyl and -hetero) purines” (Janssen Pharmaceutica N.V., priority 1985, dated 1991).

Tested on: compound 48/80-induced lethality in rats
Experiment: Protection of rats from compound 48/80-induced lethality
Type: in vivo, rat (male, inbred Wistar strain)
Conditions: Rattus norvegicus, 4 h, male Wistar rats; s.c. or oral, one hour before 0.5 mg/kg i.v. compound 48/80; ED50 = dose protecting 50% of animals; survival after 4 hours; read-out: compound 48/80 lethality test in rats-ED50
From the text: Protection of rats from compound 48/80-induced lethality.
Compound 48/80, a mixture of oligomers obtained by condensation of 4-methoxy-N-methylbenzeneethanamine and formaldehyde has been described as a potent histamine releasing agent (Int. Arch. Allergy, 13, 336 (1958)). The protection from compound 48/80-induced lethal circulatory collapse appears to be a simple way of evaluating quantitatively the antihistaminic activity of test compounds. Male rats of an inbred Wistar strain, weighing 240-260 g were used in the experiment. After overnight starvation the rats were transferred to conditioned laboratories (temp.=21±1° C., relative humidity=65±5%). The rats were treated subcutaneously or orally with a test compound or with the solvent (NaCl solution, 0.9%). One hour after treatment there was injected intravenously compound 48/80, freshly dissolved in water, at a dose of 0.5 mg/kg (0.2 ml/100 g of body weight). In control experiments, wherein 250 solvent-treated animals were injected with the standard dose of compound 48/80, not more than 2.8% of the animals survived after 4 hours. Survival after 4 hours is therefore considered to be a safe criterion of a protective effect of drug administration.
Said ED50 -values are the values in mg/kg body weight at which the tested compounds protect 50% of the tested animals against compound 48/80-induced lethality.

Going from `Cl.Cl.O.O.c1coc(Cn2c(NC3CCN(CC4COc5ccccc5O4)CC3)nc3cncnc32)c1` (stereo not shown) [Compound 60, N-[1-[(2,3-dihydro-1,4-benzodioxin-2-yl)methyl]-4-piperidinyl]-9-(2-furanyl-methyl)-9H-purin-8-amine dihydrochloride dihydrate] to `Cc1ccc(Cn2c(NC3CCN(CC4COc5ccccc5O4)CC3)nc3cncnc32)o1` (stereo not shown) [Compound 61, N-[1-[(2,3-dihydro-1,4-benzodioxin-2-yl)methyl]-4-piperidinyl]-9-[(5-methyl-2-furanyl)methyl]-9H-purin-8-amine], the ED50 falls from 0.08 mg/kg to 0.01 mg/kg (8-fold).

`COc1ccc(CCN2CCC(Cc3nc4ncnc(O)c4n3Cc3ccc(F)cc3)CC2)cc1` [Compound 62, 7-[(4-fluorophenyl)methyl]-8-[[1-[2-(4-methoxyphenyl)ethyl]-4-piperidinyl]methyl]-7H-purin-6-ol] and `COc1ccc(CCN2CCC(Nc3nc4ncncc4n3Cc3ccc(F)cc3)CC2)cc1` [Compound 78] are the same in ED50: 0.04 mg/kg for the first, 0.04 mg/kg for the second.

`COc1ccc(CCN2CCC(Oc3nc4cncnc4n3Cc3ccc(F)cc3)CC2)cc1` [Compound 64] and `COc1ccc(CCN2CCC(Nc3nc4cncnc4n3Cc3ccc(F)cc3)CC2)cc1` [Compound 75] are the same in ED50: 0.08 mg/kg for the first, 0.08 mg/kg for the second.

Going from `COc1ccc(CCN2CCC(Nc3nc4cncnc4n3Cc3ccccn3)CC2)cc1` [Compound 74, N-[1-[2-(4-methoxyphenyl)ethyl]-4-piperidinyl]-9-(2-pyridinylmethyl)-9H-purin-8-amine] to `COc1ccc(CCN2CCC(Nc3nc4cncnc4n3Cc3ccccc3)CC2)cc1` [Compound 83], the ED50 rises from 0.01 mg/kg to 0.08 mg/kg (8-fold).

Compared with `COc1ccc(CCN2CCC(Nc3nc4cncnc4n3Cc3ccco3)CC2)cc1` [Compound 76], `COc1ccc(CCN2CCC(Nc3nc4cncnc4n3Cc3ccc(C)o3)CC2)cc1` [Compound 79] is 2-fold higher in ED50: 0.02 mg/kg for the first, 0.04 mg/kg for the second.

`COc1ccc(CCN2CCC(Nc3nc4cncnc4n3Cc3cccs3)CC2)cc1` [Compound 77] and `c1ccc(CCN2CCC(Nc3nc4cncnc4n3Cc3cccs3)CC2)nc1` [Compound 143, N-[1-[2-(2-pyridinyl)ethyl]-4-piperidinyl]-9-(2-thienylmethyl)-9H-purin-8-amine] are the same in ED50: 0.02 mg/kg for the first, 0.02 mg/kg for the second.

`Cc1nc2ccccn2c(=O)c1CCN1CCC(Nc2nc3cncnc3n2Cc2cnccn2)CC1` [Compound 87, 2-methyl-3-[2-[4-[[9-(2-pyrazinylmethyl)-9H-purin-8-yl]amino]-1-piperidinyl]-ethyl]-4H-pyrido[1,2-a]pyrimidin-4-one] and `Cc1nc2ccccn2c(=O)c1CCN1CCC(Nc2nc3cncnc3n2Cc2cccs2)CC1` [Compound 89] are the same in ED50: 0.08 mg/kg for the first, 0.08 mg/kg for the second.

`Cc1nc2ccccn2c(=O)c1CCN1CCC(Nc2nc3cncnc3n2Cc2ccco2)CC1` [Compound 88] and `Cc1nc2ccccn2c(=O)c1CCN1CCC(Nc2nc3cncnc3n2Cc2ccccc2)CC1` [Compound 100] are the same in ED50: 0.02 mg/kg for the first, 0.02 mg/kg for the second.

Compared with `O=c1oc2ccccc2cc1CCN1CCC(Nc2nc3cncnc3n2Cc2ccco2)CC1` [Compound 104], `Cc1ccc(Cn2c(NC3CCN(CCc4cc5ccccc5oc4=O)CC3)nc3cncnc32)o1` [Compound 107] is 2-fold lower in ED50: 0.04 mg/kg for the first, 0.02 mg/kg for the second.

Compared with `O=c1oc2ccccc2cc1CCN1CCC(Nc2nc3cncnc3n2Cc2ccccn2)CC1` [Compound 106], `c1ccc(CCN2CCC(Nc3nc4cncnc4n3Cc3ccccn3)CC2)nc1` [Compound 144, N-[1-[2-(2-pyridinyl)ethyl]-4-piperidinyl]-9-(2-pyridinylmethyl)-9H-purin-8-amine] is 2-fold lower in ED50: 0.08 mg/kg for the first, 0.04 mg/kg for the second.

First: O=C(O)/C=C/C(=O)O.O=C(O)/C=C/C(=O)O.O=c1[nH]c2ccccc2n1CCCN1CCC(Cc2nc3cncnc3n2Cc2ccc(F)cc2)CC1 [Compound 114, 1-[3-[4-[[9-[(4-fluorophenyl)methyl]-9H-purine-8-yl]methyl]-1-piperidinyl]-propyl]-1,3-dihydro-2H-benzimidazol-2-one (E)-2-butenedioate(1:2)]
Second: O=c1[nH]c2ccccc2n1CCN1CCC(Nc2nc3cncnc3n2Cc2ccc(F)cc2)CC1 [Compound 115, 1-[2-[4-[[9-[(4-fluorophenyl)methyl]-9H-puri-8-yl]amino]-1-piperidinyl]ethyl]-1,3-dihydro-2H-benzimidazol-2-one]
The ED50 of the first is 2-fold lower: 0.04 mg/kg for the first, 0.08 mg/kg for the second.

`Fc1ccc(Cn2c(NC3CCN(CCc4ccccn4)CC3)nc3cncnc32)cc1` [Compound 141, 9-[(4-fluorophenyl)methyl]-N-[1-[2-(2-pyridinyl)ethyl]-4-piperidinyl]-9H-purin-8-amine] and `Cc1ccc(Cn2c(NC3CCN(CCc4ccccn4)CC3)nc3cncnc32)o1` [Compound 145, 9-[(5-methyl-2-furanyl)methyl]-N-[1-[2-(2-pyridinyl)ethyl]-4a-piperidinyl]-9H-purin-8-amine] are the same in ED50: 0.01 mg/kg for the first, 0.01 mg/kg for the second.

`c1ccc(CCN2CCC(Nc3nc4cncnc4n3Cc3ccco3)CC2)nc1` [Compound 142, 9-(2-furanylmethyl)-N-[1-[2-(2-pyridinyl)ethyl]-4-piperidinyl]-9H-purin-8-amine] and `c1cnc(NCCN2CCC(Nc3nc4cncnc4n3Cc3ccco3)CC2)nc1` [Compound 165] are the same in ED50: 0.02 mg/kg for the first, 0.02 mg/kg for the second.

First: c1cnc(NCCN2CCC(Nc3nc4cncnc4n3Cc3cccs3)CC2)nc1 [Compound 167]
Second: Cc1ccc(Cn2c(NC3CCN(CCNc4ncccn4)CC3)nc3cncnc32)o1 [Compound 168]
The ED50 of the first is 4-fold higher: 0.08 mg/kg for the first, 0.02 mg/kg for the second.

`COc1ncnc2c1nc(CC1CCN(CCNc3ncccn3)CC1)n2Cc1ccc(F)cc1` [Compound 169] and `Fc1ccc(Cn2c(CC3CCN(CCNc4ncccn4)CC3)nc3cncnc32)cc1` [Compound 171] are the same in ED50: 0.08 mg/kg for the first, 0.08 mg/kg for the second.

`Fc1ccc(Cn2c(NC3CCN(CCNc4nccs4)CC3)nc3cncnc32)cc1` [Compound 172, 9-[(4-fluorophenyl)methyl]-N-[1-[2-(2-thiazolylamino)ethyl)-4-piperidinyl]-9H-purin-8-amine] and `Fc1ccc(Cn2c(NC3CCN(CCNc4nc5cnccc5[nH]4)CC3)nc3cncnc32)cc1` [Compound 183, 9-[(4-fluorophenyl)methyl]-N-[1-[2-[(1H-imidazo[4,5-c]pyridin-2-yl)amino]ethyl]-4-piperidinyl]-9H-purin-8-amine (E)-2-butenedioate(1:3) monohydrate] are the same in ED50: 0.04 mg/kg for the first, 0.04 mg/kg for the second.

Same assay, conditions: male Wistar rats; s.c. or oral, one hour before 0.5 mg/kg i.v. compound 48/80; ED50 = dose protecting 50% of animals; survival after 4 hours

“9-(2-furanylmethyl)-N-[1-[4-[(2-thiazolyl)amino]pentyl]-4-piperidinyl]-9H-purin-8-amine [Compound 173]” was tested, and the “compound 48/80 lethality test in rats-ED50” value was 0.08 mg/kg body weight.

Same assay, conditions: male Wistar rats; s.c. or oral, one hour before 0.5 mg/kg i.v. compound 48/80; ED50 = dose protecting 50% of animals; survival after 4 hours; 240 min

With `COc1ccc(CCN2CCC(Nc3nc4cncnc4n3Cc3ccc(F)cc3)CC2)cc1` [Compound 80] the “compound 48/80 lethality test in rats-ED50” value was 0.04 mg/kg body weight.
